Results on four molecules are retold here after patent publication US20120022164A1, “EXTERNAL PREPARATION COMPRISING PROSTAGLANDIN DERIVATIVE” (TAISHO PHARMACEUTICAL CO., LTD., priority 2006, published 2012).

Like-named read-outs stand apart in the source and are kept apart here. Some results are limits rather than exact numbers.

As usually defined, the solubility is the dissolved amount per volume that the medium holds.

A short description of series [1]: Solubility of compound of formula II in cyclodextrin aqueous solutions (Test Example 7). It counts as physicochemical. To be noted: for solubility at 24 h: 25 °C, aqueous with cosolvent or surfactant or cyclodextrin, thermodynamic from solid. On the procedure:
A complex containing the compound of formula II and the cyclodextrin can be obtained by grinding a block prepared by freeze-drying a solution which is obtained by dissolving the both into water. In order to examine the minimum content (formulation amount) of cyclodextrin required to obtain the complex, solubility of the compound of formula II in cyclodextrin aqueous solutions which have different concentrations of and different types of cyclodextrin was measured. That is, cyclodextrin aqueous solutions of various concentrations were prepared by dissolving α-cyclodextrin, β-cyclodextrin, γ-cyclodextrin or hydroxypropyl-β-cyclodextrin into water. After each solution was poured into a test tube, the compound of formula II was added excessively. The test tube was shaken in a water bath at 25° C. for 24 hours, and a concentration of the dissolved compound of formula II was quantified with high-performance liquid chromatography (Equipment: LC10VP series manufactured by SHIMADZU CORPORATION, Column: Develosil ODS-HG-5 manufactured by Nomura Chemical Co., Ltd., Inner diameter: 4.6 mm, Length: 15 cm, Column temperature: 40° C., Mobile phase: mixed solution of water/acetonitrile/phosphoric acid (550:450:1), Flow rate: 1 mL/min, Detection wavelength: 200 nm). With this, solubility of the compound of formula II and molar ratio of the compound of formula II and each type of cyclodextrin were calculated.
Note that, for calculation of the molar ratios, molecular weights of the compound of formula II, α-cyclodextrin, β-cyclodextrin, γ-cyclodextrin and hydroxypropyl-β-cyclodextrin were set to 420.99, 972.84, 1134.98, 1297.12 and 1506.69, respectively.

A further series is described as follows: Solubility in water. It is filed as physicochemical. As to conditions: water at 25° C.
The conditions of series [2]: cited from earlier work; for Solubility in water: cyclodextrins, water at 25° C.

With `O=C(O)CSCCCC[C@@H]1[C@@H](C#C[C@@H](O)C2CCCCC2)[C@H](O)C[C@H]1Cl` [compound of formula II], the “Solubility of compound of formula II (mg/mL)” value in series [1] (hydroxypropyl-β-cyclodextrin 0.25% by mass in water, 25° C., * completely dissolved, actual solubility assumed much higher) was > 0.10* mg/mL; in series [1] (hydroxypropyl-β-cyclodextrin 5% by mass in water, 25° C., * completely dissolved, actual solubility assumed much higher), > 2.0* mg/mL; in series [1] (hydroxypropyl-β-cyclodextrin 10% by mass in water, 25° C., * completely dissolved, actual solubility assumed much higher), > 3.0* mg/mL. The solubility at 24 h is 110 µg/mL in series [1] (α-cyclodextrin aqueous solution, α-cyclodextrin 1% by mass in water, 25° C., 24 hours, read-out: Solubility of compound of formula II); 170 µg/mL in series [1] (α-cyclodextrin aqueous solution, α-cyclodextrin 2% by mass in water, 25° C., 24 hours, read-out: Solubility of compound of formula II); 500 µg/mL in series [1] (α-cyclodextrin aqueous solution, α-cyclodextrin 5% by mass in water, 25° C., 24 hours, read-out: Solubility of compound of formula II); 1220 µg/mL in series [1] (α-cyclodextrin aqueous solution, α-cyclodextrin 10% by mass in water, 25° C., 24 hours, read-out: Solubility of compound of formula II); 1520 µg/mL in series [1] (α-cyclodextrin aqueous solution, α-cyclodextrin 12% by mass in aqueous solution, 25° C. (FIG. 1), read-out: Solubility of the compound of formula II); below 100 µg/mL in series [1] (β-cyclodextrin aqueous solution, β-cyclodextrin 1% by mass in water, 25° C., 24 hours, read-out: Solubility of compound of formula II). Also, the solubility at 24 h is above 200 µg/mL in series [1] (β-cyclodextrin aqueous solution, β-cyclodextrin 2% by mass in water, 25° C., * completely dissolved, actual solubility assumed much higher, read-out: Solubility of compound of formula II); above 50 µg/mL in series [1] (γ-cyclodextrin aqueous solution, γ-cyclodextrin 0.1% by mass in water, 25° C., * completely dissolved, actual solubility assumed much higher, read-out: Solubility of compound of formula II); 170 µg/mL in series [1] (γ-cyclodextrin aqueous solution, γ-cyclodextrin 1% by mass in water, 25° C., 24 hours, read-out: Solubility of compound of formula II); 120 µg/mL in series [1] (γ-cyclodextrin aqueous solution, γ-cyclodextrin 5% by mass in water, 25° C., 24 hours, read-out: Solubility of compound of formula II). In addition, the “Compound of formula II: cyclodextrin (molar ratio)” value in series [1] (γ-cyclodextrin 5% by mass) is given as 0.1396. The same molecule gave a solubility in the series “Solubility in water” of around 60 µg/mL.
Consider `OC[C@H]1O[C@@H]2O[C@H]3[C@H](O)[C@@H](O)[C@@H](O[C@H]4[C@H](O)[C@@H](O)[C@@H](O[C@H]5[C@H](O)[C@@H](O)[C@@H](O[C@H]6[C@H](O)[C@@H](O)[C@@H](O[C@H]7[C@H](O)[C@@H](O)[C@@H](O[C@H]8[C@H](O)[C@@H](O)[C@@H](O[C@H]1[C@H](O)[C@H]2O)O[C@@H]8CO)O[C@@H]7CO)O[C@@H]6CO)O[C@@H]5CO)O[C@@H]4CO)O[C@@H]3CO` [β-cyclodextrin], for which the Solubility in water entry in series [2] was “approximately 2%”.
As to `OC[C@H]1O[C@@H]2O[C@H]3[C@H](O)[C@@H](O)[C@@H](O[C@H]4[C@H](O)[C@@H](O)[C@@H](O[C@H]5[C@H](O)[C@@H](O)[C@@H](O[C@H]6[C@H](O)[C@@H](O)[C@@H](O[C@H]7[C@H](O)[C@@H](O)[C@@H](O[C@H]1[C@H](O)[C@H]2O)O[C@@H]7CO)O[C@@H]6CO)O[C@@H]5CO)O[C@@H]4CO)O[C@@H]3CO` [α-cyclodextrin], the Solubility in water result in series [2] is “approximately 14%”. Moreover, in series [2] (water), the “Solubility of α-cyclodextrin in water” value is given as “approximately 14 % by mass”.
On to hydroxypropyl-β-cyclodextrin, for which the Solubility in water entry in series [2] is on record as “approximately 22%”.
